#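 Where inhibition never reached the appropriate level, the endpoint shown equals the highest concentration tested. Otherwise, values were interpolated linearly from a five-concentration, 48-hour dose response in 96-well plates. GI50: concentration for 50% inhibition of growth. TGI: concentration producing complete growth inhibition.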
# What was measured:
# Test in all cases: NCI anticancer screen, dose series, 48 h
# SF-295 CNS = test system: SF-295 CNS
# CAKI-1 renal = test system: CAKI-1 renal
# SR leukemia = test system: SR leukemia
# SW-620 colon = test system: SW-620 colon
# KM12 colon = test system: KM12 colon
# HT29 colon = test system: HT29 colon
# 786-0 renal = test system: 786-0 renal
# OVCAR-3 ovarian = test system: OVCAR-3 ovarian
# IGROV1 ovarian = test system: IGROV1 ovarian
# HS 578T breast = test system: HS 578T breast
# SK-MEL-5 melanoma = test system: SK-MEL-5 melanoma
# OVCAR-8 ovarian = test system: OVCAR-8 ovarian
# SF-268 CNS = test system: SF-268 CNS
# HOP-62 NSCLC = test system: HOP-62 NSCLC
# A549 NSCLC = test system: A549 NSCLC
# HL-60(TB) leukemia = test system: HL-60(TB) leukemia
# UACC-257 melanoma = test system: UACC-257 melanoma
# LOX IMVI melanoma = test system: LOX IMVI melanoma
# MCF7 breast = test system: MCF7 breast
# DU-145 prostate = test system: DU-145 prostate
# A498 renal = test system: A498 renal
# NCI-H23 lung = test system: NCI-H23 lung
# OVCAR-5 ovarian = test system: OVCAR-5 ovarian
# HCC-2998 colon = test system: HCC-2998 colon
# OVCAR-4 ovarian = test system: OVCAR-4 ovarian
# SK-OV-3 ovarian = test system: SK-OV-3 ovarian
# SNB-75 CNS = test system: SNB-75 CNS
# SK-MEL-28 melanoma = test system: SK-MEL-28 melanoma
# NCI-H522 lung = test system: NCI-H522 lung
# MOLT-4 leukemia = test system: MOLT-4 leukemia
# NCI-H226 lung = test system: NCI-H226 lung
# SF-539 CNS = test system: SF-539 CNS
# M14 melanoma = test system: M14 melanoma
# RXF 393 renal = test system: RXF 393 renal
# UO-31 renal = test system: UO-31 renal
# HCT-116 colon = test system: HCT-116 colon
# U251 CNS = test system: U251 CNS
# MALME-3M melanoma = test system: MALME-3M melanoma
# SN12C renal = test system: SN12C renal
# TK-10 renal = test system: TK-10 renal
# PC-3 prostate = test system: PC-3 prostate
# SNB-19 CNS = test system: SNB-19 CNS
# BT-549 breast = test system: BT-549 breast
# ACHN renal = test system: ACHN renal
# CCRF-CEM leukemia = test system: CCRF-CEM leukemia
# NCI/ADR-RES ovarian = test system: NCI/ADR-RES ovarian
# T-47D breast = test system: T-47D breast
# NCI-H460 lung = test system: NCI-H460 lung
# K-562 leukemia = test system: K-562 leukemia
# SK-MEL-2 melanoma = test system: SK-MEL-2 melanoma
# MDA-MB-435 = test system: MDA-MB-435
# EKVX NSCLC = test system: EKVX NSCLC
# COLO 205 colon = test system: COLO 205 colon
# RPMI-8226 leukemia = test system: RPMI-8226 leukemia
# UACC-62 melanoma = test system: UACC-62 melanoma
# MDA-MB-231 breast = test system: MDA-MB-231 breast
# HCT-15 colon = test system: HCT-15 colon
smiles,measurement,setting,value
CN1CCN(Cc2ccc(NC(=O)c3cncc(C#Cc4cnc5ccc(N6CCOCC6)nn45)c3)cc2C(F)(F)F)CC1,GI50,SF-295 CNS,0.14 µM
same,TGI,SF-295 CNS,0.686 µM
same,GI50,CAKI-1 renal,0.0519 µM
same,TGI,CAKI-1 renal,0.174 µM
same,GI50,SR leukemia,0.0972 µM
same,TGI,SR leukemia,0.367 µM
same,GI50,SW-620 colon,0.0497 µM
same,TGI,SW-620 colon,0.378 µM
same,GI50,KM12 colon,0.005 µM
same,TGI,KM12 colon,0.243 µM
same,GI50,HT29 colon,0.0313 µM
same,TGI,HT29 colon,0.392 µM
same,GI50,786-0 renal,0.144 µM
same,TGI,786-0 renal,0.433 µM
same,GI50,OVCAR-3 ovarian,0.0994 µM
same,TGI,OVCAR-3 ovarian,0.407 µM
same,GI50,IGROV1 ovarian,0.0468 µM
same,TGI,IGROV1 ovarian,0.43 µM
same,GI50,HS 578T breast,0.0853 µM
same,TGI,HS 578T breast,0.353 µM
same,GI50,SK-MEL-5 melanoma,0.225 µM
same,TGI,SK-MEL-5 melanoma,0.814 µM
same,GI50,OVCAR-8 ovarian,0.134 µM
same,TGI,OVCAR-8 ovarian,0.541 µM
same,GI50,SF-268 CNS,0.0823 µM
same,TGI,SF-268 CNS,0.218 µM
same,GI50,HOP-62 NSCLC,0.1 µM
same,TGI,HOP-62 NSCLC,0.328 µM
same,GI50,A549 NSCLC,0.121 µM
same,TGI,A549 NSCLC,0.555 µM
same,GI50,HL-60(TB) leukemia,0.0239 µM
same,TGI,HL-60(TB) leukemia,0.224 µM
same,GI50,UACC-257 melanoma,0.16 µM
same,TGI,UACC-257 melanoma,0.936 µM
same,GI50,LOX IMVI melanoma,0.0593 µM
same,TGI,LOX IMVI melanoma,0.142 µM
same,GI50,MCF7 breast,0.0269 µM
same,TGI,MCF7 breast,0.442 µM
same,GI50,DU-145 prostate,0.0936 µM
same,TGI,DU-145 prostate,0.398 µM
same,GI50,A498 renal,0.0975 µM
same,TGI,A498 renal,0.189 µM
same,GI50,NCI-H23 lung,0.0796 µM
same,TGI,NCI-H23 lung,0.325 µM
same,GI50,OVCAR-5 ovarian,0.0858 µM
same,TGI,OVCAR-5 ovarian,0.548 µM
same,GI50,HCC-2998 colon,0.13 µM
same,TGI,HCC-2998 colon,0.474 µM
same,GI50,OVCAR-4 ovarian,0.0991 µM
same,TGI,OVCAR-4 ovarian,0.543 µM
same,GI50,SK-OV-3 ovarian,0.144 µM
same,TGI,SK-OV-3 ovarian,0.405 µM
same,GI50,SNB-75 CNS,0.0477 µM
same,TGI,SNB-75 CNS,0.155 µM
same,GI50,SK-MEL-28 melanoma,0.122 µM
same,TGI,SK-MEL-28 melanoma,0.433 µM
same,GI50,NCI-H522 lung,0.068 µM
same,TGI,NCI-H522 lung,0.161 µM
same,GI50,MOLT-4 leukemia,0.0958 µM
same,TGI,MOLT-4 leukemia,1.46 µM
same,GI50,NCI-H226 lung,0.0239 µM
same,TGI,NCI-H226 lung,0.32 µM
same,GI50,SF-539 CNS,0.06 µM
same,TGI,SF-539 CNS,0.205 µM
same,GI50,M14 melanoma,0.0506 µM
same,TGI,M14 melanoma,0.122 µM
same,GI50,RXF 393 renal,0.0786 µM
same,TGI,RXF 393 renal,0.175 µM
same,GI50,UO-31 renal,0.135 µM
same,TGI,UO-31 renal,0.359 µM
same,GI50,HCT-116 colon,0.0263 µM
same,TGI,HCT-116 colon,0.342 µM
same,GI50,U251 CNS,0.141 µM
same,TGI,U251 CNS,0.558 µM
same,GI50,MALME-3M melanoma,0.0372 µM
same,TGI,MALME-3M melanoma,0.153 µM
same,GI50,SN12C renal,0.0495 µM
same,TGI,SN12C renal,0.3 µM
same,GI50,TK-10 renal,0.0799 µM
same,TGI,TK-10 renal,0.229 µM
same,GI50,PC-3 prostate,0.145 µM
same,TGI,PC-3 prostate,1.04 µM
same,GI50,SNB-19 CNS,0.163 µM
same,TGI,SNB-19 CNS,0.686 µM
same,GI50,BT-549 breast,0.259 µM
same,TGI,BT-549 breast,0.763 µM
same,GI50,ACHN renal,0.131 µM
same,TGI,ACHN renal,0.51 µM
same,GI50,CCRF-CEM leukemia,0.125 µM
same,TGI,CCRF-CEM leukemia,5.98 µM
same,GI50,NCI/ADR-RES ovarian,0.814 µM
same,TGI,NCI/ADR-RES ovarian,3.75 µM
same,GI50,T-47D breast,0.199 µM
same,TGI,T-47D breast,2.62 µM
same,GI50,NCI-H460 lung,0.0845 µM
same,TGI,NCI-H460 lung,0.254 µM
same,GI50,K-562 leukemia,0.005 µM
same,TGI,K-562 leukemia,1.9 µM
same,GI50,SK-MEL-2 melanoma,0.068 µM
same,TGI,SK-MEL-2 melanoma,0.144 µM
same,GI50,MDA-MB-435,0.0533 µM
same,TGI,MDA-MB-435,0.231 µM
same,GI50,EKVX NSCLC,0.101 µM
same,TGI,EKVX NSCLC,0.564 µM
same,GI50,COLO 205 colon,0.0536 µM
same,TGI,COLO 205 colon,0.129 µM
same,GI50,RPMI-8226 leukemia,0.153 µM
same,TGI,RPMI-8226 leukemia,0.553 µM
same,GI50,UACC-62 melanoma,0.0863 µM
same,TGI,UACC-62 melanoma,0.419 µM
same,GI50,MDA-MB-231 breast,0.033 µM
same,TGI,MDA-MB-231 breast,0.204 µM
same,GI50,HCT-15 colon,0.112 µM
same,TGI,HCT-15 colon,0.375 µM

# From PubChem BioAssay (NCI)
